Test results: patent US20260071220A1, “CONJUGATE OF NUCLEOTIDE ANALOG-CONTAINING DOUBLE-STRANDED RNAI ANALOG” (BaseCure Therapeutics LLC, priority 2022, published 2026)
Where “and” joins values, the source holds several entries; their conditions need not be identical. Equal entries are not always repeated. In the oligonucleotide strings, read from the 5' end, every base follows the letter of its sugar. An asterisk marks phosphorothioate; unmarked linkages are phosphodiester. Other units and linkages are bracketed, terminal groups are in braces. A string of capitals states the bases alone. {D01} = GalNAc ligand D01, attached to sense strand by a phosphodiester bond; m = 2'-O-methyl; f = 2'-fluoro

What was measured:
AGT mRNA = test: Mouse hAGT HDI model (liver AGT mRNA); format: in vivo; details: 5 mg/kg single s.c. dose, liver on Day 4; for AGT mRNA expression of mouse liver after administration/before administration, Average: group average (4 mice); for AGT mRNA expression of mouse liver after administration/before administration: individual animal, 5 mg/kg
Procedure: The targeting of a target gene in a sample to be tested and the inhibitory effect on the target gene were evaluated by a mouse model injected with pcDNA-CMV-AGT plasmids via tail vein at high pressure.
pcDNA-CMV-AGT plasmids, BALB/c female mice, DPBS (Dulbecco's phosphate buffer solution), and a conjugate of the present invention.
6 to 8-week-old BALB/c female mice were purchased, and the mice were adapted to quarantine for one week after arriving at an animal room.
On Day 0, the mice were divided into groups at random according to weight data, with 4 mice in each group, all the mice were dosed subcutaneously after grouping, with a single dose at 10 mL/kg. The mice in group 1 were dosed with DPBS; the mice in group 2 were dosed with AD-85481 at the dose of 5 mg/kg; the mice in group 3 were dosed with the conjugate 3 of the present invention at the dose of 5 mg/kg; the group 4 was dosed with the conjugate 2 of the present invention at the dose of 5 mg/kg.
On Day 3 after administration, all the mice were injected with the pcDNA-CMV-AGT plasmids at a volume of 8% of their weight via the tail vein within 5 s (injection volume (mL)=mouse weight (g)×8%). The mass of the plasmids injected into each mouse was 10 μg.
On Day 4 after administration, all groups of mice were euthanized by CO2 inhalation, and 2 liver samples were collected from each mouse. The liver samples were treated with RNAlater at 4° C. overnight, then RNAlater was removed, and subsequently the samples without RNAlater were stored at −80° C. for detecting the expression level of AGT genes.
4. In the table, the data represent AGT mRNA expression of mouse liver after administration/AGT mRNA expression of mouse liver before administration, […]

hTLR7 = target: T1, hTLR7 (Homo sapiens, UniProt Q9NYK1); test: Agonistic activity on hTLR7 cells (HEK BLUE, QUANTI-Blue OD650); format: cell-based; details: 24 h, transfection with RNAiMAX, maximum concentration 200 nM
T1 construct: host or cells: HEK BLUE hTLR7 (HEK293-derived SEAP reporter line)
T1 sequence (Q9NYK1 27-1049): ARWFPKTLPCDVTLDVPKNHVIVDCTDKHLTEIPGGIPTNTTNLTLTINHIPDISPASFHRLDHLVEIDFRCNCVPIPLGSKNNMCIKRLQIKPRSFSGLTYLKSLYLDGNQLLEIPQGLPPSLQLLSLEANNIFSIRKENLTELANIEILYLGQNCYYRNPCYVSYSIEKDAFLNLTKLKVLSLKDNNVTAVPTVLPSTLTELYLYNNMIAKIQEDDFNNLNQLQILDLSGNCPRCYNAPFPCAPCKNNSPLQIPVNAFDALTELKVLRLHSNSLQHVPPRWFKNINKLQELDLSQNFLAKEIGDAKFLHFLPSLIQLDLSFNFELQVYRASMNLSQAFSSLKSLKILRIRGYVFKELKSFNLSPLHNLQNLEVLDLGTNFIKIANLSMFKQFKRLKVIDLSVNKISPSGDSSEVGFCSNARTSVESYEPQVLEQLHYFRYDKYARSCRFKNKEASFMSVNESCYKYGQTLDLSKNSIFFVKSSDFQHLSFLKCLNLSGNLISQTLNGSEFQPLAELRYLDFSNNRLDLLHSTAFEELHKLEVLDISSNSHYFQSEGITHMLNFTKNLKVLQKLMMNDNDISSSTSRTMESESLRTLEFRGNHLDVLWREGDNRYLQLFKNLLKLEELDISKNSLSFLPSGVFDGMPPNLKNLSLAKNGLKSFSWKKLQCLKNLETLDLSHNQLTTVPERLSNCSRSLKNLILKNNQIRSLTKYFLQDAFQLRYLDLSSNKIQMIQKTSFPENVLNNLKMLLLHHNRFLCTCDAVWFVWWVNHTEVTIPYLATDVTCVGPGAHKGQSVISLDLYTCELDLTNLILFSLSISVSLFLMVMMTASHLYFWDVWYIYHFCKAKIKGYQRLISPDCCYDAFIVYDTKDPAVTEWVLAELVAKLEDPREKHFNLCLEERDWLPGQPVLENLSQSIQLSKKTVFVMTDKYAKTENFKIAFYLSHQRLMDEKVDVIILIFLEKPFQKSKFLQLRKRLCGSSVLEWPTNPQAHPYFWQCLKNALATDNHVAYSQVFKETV
Procedure: 1) The conjugate of the present invention was diluted to a concentration that was 20 times a final concentration, the diluted conjugate was mixed with RNAiMAX-OPTI MEM (RNAiMAX:OPTI MEM=3:47) at a ratio of 1:1 and incubated for 15 min at room temperature.
2) 10 μL of incubated conjugate of the present invention was added into a corresponding cell plate, with 10 concentrations in total, a maximum concentration being 200 nM, and double duplicated wells for each concentration.
10 μL of 0.5 μM BLOCK-iT™ Alexa Fluor® Red Fluorescent Control was added into 2 transfection positive control wells.
4) 90 μL of cells were seeded into a 96-well plate with the conjugate at the density of 50,000 cells/well. […]
7) Compound activity detection: 20 μL of cell supernatant was taken from each well and added into an experimental plate containing 180 μL of QUANTI-Blue™ reagent and then incubated for 1 h at 37° C., followed by detecting an absorbance values at 650 nm (OD650) using the multifunctional microplate reader Flexstation III.
Compound activity: the OD650 values were analyzed using GraphPad Prism software, and a dose effect curve of the compound was fit, and the EC50 value of the compound was calculated. […] The cell activity % value was analyzed using GraphPadPrism software, the dose effect curve of the compound was fit, and the CC50 value of the compound on cell was calculated.

Row | Substance | AGT mRNA expression of mouse liver after administration/before administration, Average (AGT mRNA) [%] | AGT mRNA expression of mouse liver after administration/before administration (AGT mRNA) | EC50 (hTLR7) [nM]
1 | Conjugate 2: Double-stranded RNAi analog against AGT, D01 GalNAc ligand on sense strand; sense SEQ ID NO: 6, antisense SEQ ID NO: 2 containing Z (sense mA*mU*fCfCmAfCfAfAmUmGmAmGmAfGmUmAmCmA-{D01}; antisense CUCACAUGUACNCUCAUUGUGGAUGACGA; antisense: chemistry not given here; antisense strand modified, includes nucleotide analog Z, further chemistry not fully specified) | 3 | 2% (2×) and 3% and 4% | > 200
2 | Conjugate 3: Double-stranded RNAi analog against AGT, D01 GalNAc ligand on sense strand; sense SEQ ID NO: 7, antisense SEQ ID NO: 2 containing Z (sense mA*mU*fCfCmAfCfAfAmUmGmAfGmAmGmUmAmCmA-{D01}; antisense CUCACAUGUACNCUCAUUGUGGAUGACGA; antisense: chemistry not given here; antisense strand modified, includes nucleotide analog Z, further chemistry not fully specified) | 3 | 3% (2×) and 2% (2×) | > 200
